Tests used:
[1] = tested on: soybean; assay: Upland foliar application test (Test 3), crop injury; assay type: in vivo; settings: 30 g ai/a, foliar spray at 2-3 leaves, 30th day
Method in brief: (§1)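 Foliar post-emergence spray: diluted emulsifiable formulation applied at 5 l/are by pressure ULV sprayer once plants in upland-soil greenhouse pots reached 2-3 leaves. Degree of weed damage and crop injury rated on day 30 post-application.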

[2] = tested on: cotton; assay: as above; assay type: in vivo; settings: 30 g ai/a, foliar spray at 2-3 leaves, 30th day
Method in brief: as §1

[3] = tested on: green foxtail; assay: Upland soil application test (Test 2); assay type: in vivo; settings: 30 g ai/a, soil spray before emergence, 30 days later
Procedure: (§2) Resin-made 1/2500-are pots were filled with the soil of an upland field. After they were fertilized, soybean, peanut and cotton were seeded and 2-3 cm soil covering was applied. Seeds of redroot pigweed, common lambsquarters, barnyardgrass, green foxtail, large crabgrass, foxtail meadow and johnsongrass had been uniformly mixed with the soil. They were allowed to germinate in a green house. One day later (before emergence of weeds), a wettable powder prepared from a predetermined amount of each test compound in a similar manner to the method described in Formulation Example 1 was diluted with water and then sprayed evenly at an application rate equal to 10 l per are onto the surface of the soil by means of a pressure-operated ULV (ultra low volume) sprayer. Influence to the crops and weeds were observed 30 days later. The results are shown in Table 3, in which the degree of damages of each test plant and the degree of injury to each crop were determined by comparing the air-dried weights of the test plant and crop with those of the corresponding plant and crop in untreated pots and are shown in accordance with the following standard: […]

[4] = tested on: barnyardgrass; assay: Upland soil application test (Test 2); assay type: in vivo; settings: 30 g ai/a, soil spray before emergence, 30 days later
Procedure: as §2

[5] = tested on: redroot pigweed; assay: Upland soil application test (Test 2); assay type: in vivo; settings: 30 g ai/a, soil spray before emergence, 30 days later
Procedure: as §2

[6] = tested on: johnsongrass; assay: Upland soil application test (Test 2); assay type: in vivo; settings: 30 g ai/a, soil spray before emergence, 30 days later
Procedure: as §2

[7] = tested on: common lambsquarters; assay: Upland soil application test (Test 2); assay type: in vivo; settings: 30 g ai/a, soil spray before emergence, 30 days later
Procedure: as §2

[8] = tested on: large crabgrass; assay: Upland soil application test (Test 2); assay type: in vivo; settings: 30 g ai/a, soil spray before emergence, 30 days later
Procedure: as §2

[9] = tested on: foxtail meadow; assay: Upland soil application test (Test 2); assay type: in vivo; settings: 30 g ai/a, soil spray before emergence, 30 days later
Procedure: as §2

[10] = tested on: ALS (acetolactate syntase); assay: ALS enzyme assay (Test 1); assay type: biochemical, pea; settings: 1,000 ppm (0.5 mg/0.5 ml)
Procedure: To determine the selectivity in enzyme level between crops and weeds, and ALS enzyme assay was conducted using pea as a representative of broadleaf crops and barnyardgrass as a representative of narrowleaf weeds.
After seeds of pea and barnyardgrass were allowed to germinate at 25° C. for 8-14 days in a dark place, partially-purified suspensions (Suspensions A) of acetolactate syntase were separately obtained from seedlings in accordance with the method described in the literature, Plant Physiology, 75, 827-831.
In a test tube, 0.5 mg of one of test compounds was weighed, followed by the addition of 0.15 ml of a 20 mM K2 HPO4 solution and 0.25 ml of a reaction substrate medium which consisted of 40 mM of K2 HPO4, 40 mM of sodium pyruvate, 1 mM of TPP, 1 mM of MgCl2 and 20 μM of FAD so that 0.4 ml of a reaction solution (Solution B) was prepared. Added to 0.4 ml of Solution B was 0.1 ml of suspension A. After the resultant mixture was shaken for 1 hour in a thermostat water bath controlled at 30° C., 50 μl of 6N sulfuric acid were added to terminate the reaction.
Next, the reaction-terminated liquid mixture was transferred into a thermostat water bath controlled at 60° C. and was heated for 15 minutes. Thereafter, 0.5 ml of a 0.5% creatine solution and 0.5 ml of a 5% alkaline α-naphthol solution were added, and the resultant mixture was maintained at 60° C. for 15 minutes. As a result, the test solution developed a pink-red color. After the above operation, the absorbance of the test solution at 525 nm was measured by a spectrophotometer (Absorbance 1 of Test Compound).
On the other hand, the absorbance (Absorbance 2 of Blank) of a solution obtained by subjecting a portion of Solution B, said portion being free of the test compound, to the above operation and the absorbance (Absorbance 3 of sulfuric acid terminated) of another solution obtained by subjecting another portion of Solution B, said portion containing 50 μl of 6N sulfuric acid as a test compound, were measured at the same time. Based on the values of the respective measurements, the enzyme assay at 1,000 ppm (0.5 mg/0.5 ml) of each compound was determined. [formula]

[11] = tested on: soybean; assay: Upland soil application test (Test 2), crop injury; assay type: in vivo; settings: 30 g ai/a, soil spray before emergence, 30 days later
Procedure: as §2

[12] = tested on: cotton; assay: Upland soil application test (Test 2), crop injury; assay type: in vivo; settings: 30 g ai/a, soil spray before emergence, 30 days later
Procedure: as §2

[13] = tested on: peanut; assay: Upland soil application test (Test 2), crop injury; assay type: in vivo; settings: 30 g ai/a, soil spray before emergence, 30 days later
Procedure: as §2

Row | SMILES | Injury Soybean [1] | Injury Cotton [2] | Herbicidal effects Green foxtail [3] | Herbicidal effects Barnyardgrass [4] | Herbicidal effects Redroot pigweed [5] | Herbicidal effects Johnsongrass [6] | Herbicidal effects Common lambsquarters [7] | Herbicidal effects Large crabgrass [8] | Herbicidal effects Foxtail meadow [9] | Inhibitory activity (%) Pea [10] [%] | Injury Soybean [11] | Injury Cotton [12] | Injury Peanut [13]
1 | COc1cc(OC)nc(Oc2ccccc2C=NOCc2ccc(C)cc2)n1 [compound 19] | 0 (91-100 (No damages)) | 0 (91-100 (No damages)) | 4 (6-10 (Severe damages)) | 4 (6-10 (Severe damages)) | 3 (11-40 (Medium damages)) | 3 (11-40 (Medium damages)) | 4 (6-10 (Severe damages)) | 3 (11-40 (Medium damages)) | 4 (6-10 (Severe damages)) | 0 | 0 (91-100 (No damages)) | 0 (91-100 (No damages)) | 0 (91-100 (No damages))
2 | COc1cc(OC)nc(Oc2ccccc2C=NOC(C)c2ccccc2)n1 (stereo not shown) [compound 21] | 0 (91-100 (No damages)) | 0 (91-100 (No damages)) | 4 (6-10 (Severe damages)) | 3 (11-40 (Medium damages)) | 3 (11-40 (Medium damages)) | 4 (6-10 (Severe damages)) | 3 (11-40 (Medium damages)) | 4 (6-10 (Severe damages)) | 3 (11-40 (Medium damages)) | 0 | 0 (91-100 (No damages)) | 0 (91-100 (No damages)) | 0 (91-100 (No damages))
3 | COc1cc(OC)nc(Oc2ccccc2C=NOCc2cccc3ccccc23)n1 [compound 22] | 0 (91-100 (No damages)) | 0 (91-100 (No damages)) | 4 (6-10 (Severe damages)) | 3 (11-40 (Medium damages)) | 3 (11-40 (Medium damages)) | 4 (6-10 (Severe damages)) | 3 (11-40 (Medium damages)) | 3 (11-40 (Medium damages)) | 4 (6-10 (Severe damages)) | 0 | 0 (91-100 (No damages)) | 0 (91-100 (No damages)) | 0 (91-100 (No damages))
4 | COc1cc(OC)nc(Oc2ccccc2C=NOCCc2ccccc2)n1 [compound 23] | 0 (91-100 (No damages)) | 0 (91-100 (No damages)) | 3 (11-40 (Medium damages)) | 3 (11-40 (Medium damages)) | 3 (11-40 (Medium damages)) | 4 (6-10 (Severe damages)) | 4 (6-10 (Severe damages)) | 3 (11-40 (Medium damages)) | 3 (11-40 (Medium damages)) | 0 | 0 (91-100 (No damages)) | 0 (91-100 (No damages)) | 0 (91-100 (No damages))
5 | CCCC=CCON=Cc1ccccc1Oc1nc(OC)cc(OC)n1 [compound 25] | 0 (91-100 (No damages)) | 0 (91-100 (No damages)) | 5 (0-5 (Death)) | 4 (6-10 (Severe damages)) | 4 (6-10 (Severe damages)) | 5 (0-5 (Death)) | 4 (6-10 (Severe damages)) | 5 (0-5 (Death)) | 5 (0-5 (Death)) | 0 | 0 (91-100 (No damages)) | 0 (91-100 (No damages)) | 0 (91-100 (No damages))
6 | COc1cc(OC)nc(Oc2ccccc2C=NOCC=Cc2ccc(F)cc2)n1 [compound 29] | 0 (91-100 (No damages)) | 0 (91-100 (No damages)) | 4 (6-10 (Severe damages)) | 5 (0-5 (Death)) | 5 (0-5 (Death)) | 5 (0-5 (Death)) | 4 (6-10 (Severe damages)) | 5 (0-5 (Death)) | 4 (6-10 (Severe damages)) | 11 | 0 (91-100 (No damages)) | 0 (91-100 (No damages)) | 0 (91-100 (No damages))
7 | COc1cc(OC)nc(Oc2ccccc2C=NOCC=Cc2ccc(Cl)c(Cl)c2)n1 [compound 31] | 0 (91-100 (No damages)) | 0 (91-100 (No damages)) | 4 (6-10 (Severe damages)) | 4 (6-10 (Severe damages)) | 3 (11-40 (Medium damages)) | 5 (0-5 (Death)) | 3 (11-40 (Medium damages)) | 4 (6-10 (Severe damages)) | 4 (6-10 (Severe damages)) | 0 | 0 (91-100 (No damages)) | 0 (91-100 (No damages)) | 0 (91-100 (No damages))

Reference: patent publication US5053070A, “Pyrimidine derivatives, preparation processes thereof, herbicide containing the same, and herbicidal compositions containing the same along with other active ingredient” (Mitsui Toatsu Chemicals, Incorporated, priority 1988, dated 1991)
